Experiment [1] deals with T1, Tie2 (Homo sapiens, UniProt Q02763). The experiment in a line: Tie2 ELISA assay (cellular Tie2 autophosphorylation). Format: cell-based. The arrangement: expressed in transfected cells; host or cells: CHO (CHO Tie2/DHFR). To be noted: CHO cells stably transfected with Tie2, stimulated by angiopoietin-2; Tie2 autophosphorylation by sandwich-ELISA; read-out: Tie 2 activity (assay 1). The method, then:
Cellular activity of compounds of the present invention as inhibitors of Tie2 kinase activity was measured employing a Tie2 ELISA assay as described in the following paragraphs. Herein CHO cell-cultures, which are stably transfected by known techniques with Tie2 using DHFR deficiency as selection marker, are stimulated by angiopoietin-2. The specific autophosphorylation of Tie2 receptors is quantified with a sandwich-ELISA using anti-Tie2 antibodies for catch and anti-phosphotyrosine antibodies coupled to HRP for detection.
• 96 well tissue culture plate, sterile, Greiner • 96 well FluoroNunc plate MaxiSorp Surface C, Nunc • 96 well plate polypropylene for compound dilution in DMSO • CHO Tie2/DHFR (transfected cells) • PBS−; PBS++, DMSO • MEM alpha Medium with Glutamax-I without Ribonucleosides and Deoxyribonucleosides (Gibco #32561-029) • with 10% FCS after dialysis! and 1% PenStrep • Lysis buffer: 1 Tablet “Complete” protease inhibitor • 1 cap Vanadate (1 mL>40 mg/mL; working solution 2 mM) • ad 50 mL with Duschl-Puffer • pH 7.6 • Anti-Tie2-antibody 1:425 in Coating Buffer pH 9.6 • Stock solution: 1.275 mg/mL>working.: 3 μg/mL • PBST: 2 bottles PBS (10×)+10 ml Tween, fill up with VE-water • RotiBlock 1:10 in VE-water • Anti-Phosphotyrosine HRP-Conjugated 1:10000 in 3% TopBlock • 3% TopBlock in PBST • BM Chemiluminescence ELISA Substrate (POD) • solution B 1:100 solution A • SF9 cell culture medium • Ang2-Fc in SF9 cell culture medium
• Dispense 5×10^4 cells/well/98 μL in 96 well tissue culture plate • Incubate at 37° C./5% CO2 • After 24 h add compounds according to desired concentrations • Add also to control and stimulated values without compounds 2 μL DMSO • And mix for a few min at room temperature • Add 100 μL Ang2-Fc to all wells except control, which receives insect medium • Incubate 20 min at 37° C. • Wash 3× with PBS++ • Add 100 μl Lysis buffer/well and shake a couple of min at room temperature • Store lysates at […] before utilizing for the ELISA
• Coat 96 well FluoroNunc Plate MaxiSorp Surface C with anti-Tie2 mAb 1:425 in Coating buffer pH 9.6; 100 μL/well overnight at 4° C. • Wash 2× with PBST • Block plates with 250 μL/well RotiBlock 1:10 in VE-water • Incubate for 2 h at room temperature or overnight at 4° C. shaking • Wash 2× in PBST • Add thawed lysates to wells and incubate overnight shaking at 4° C. • Wash 2× with PBST • Add 100 μL/well anti-Phosphotyrosine HRP-Conjugated 1:10000 in 3% TopBlock (3% TopBlock in PBST) and incubate overnight under shaking • Wash 6× with PBST • Add 100 μL/well BM Chemiluminescence ELISA Substrate (POD) solutions 1 und 2 (1:100) • Determine luminescence with the LumiCount. Assay 2: Tie-2-Kinase HTRF-Assay without Kinase Preactivation
Background: In an ELISA, binding on a coated surface is turned into a signal by an enzyme label.
Target sequence in this assay (Q02763 23-1124, species assumed): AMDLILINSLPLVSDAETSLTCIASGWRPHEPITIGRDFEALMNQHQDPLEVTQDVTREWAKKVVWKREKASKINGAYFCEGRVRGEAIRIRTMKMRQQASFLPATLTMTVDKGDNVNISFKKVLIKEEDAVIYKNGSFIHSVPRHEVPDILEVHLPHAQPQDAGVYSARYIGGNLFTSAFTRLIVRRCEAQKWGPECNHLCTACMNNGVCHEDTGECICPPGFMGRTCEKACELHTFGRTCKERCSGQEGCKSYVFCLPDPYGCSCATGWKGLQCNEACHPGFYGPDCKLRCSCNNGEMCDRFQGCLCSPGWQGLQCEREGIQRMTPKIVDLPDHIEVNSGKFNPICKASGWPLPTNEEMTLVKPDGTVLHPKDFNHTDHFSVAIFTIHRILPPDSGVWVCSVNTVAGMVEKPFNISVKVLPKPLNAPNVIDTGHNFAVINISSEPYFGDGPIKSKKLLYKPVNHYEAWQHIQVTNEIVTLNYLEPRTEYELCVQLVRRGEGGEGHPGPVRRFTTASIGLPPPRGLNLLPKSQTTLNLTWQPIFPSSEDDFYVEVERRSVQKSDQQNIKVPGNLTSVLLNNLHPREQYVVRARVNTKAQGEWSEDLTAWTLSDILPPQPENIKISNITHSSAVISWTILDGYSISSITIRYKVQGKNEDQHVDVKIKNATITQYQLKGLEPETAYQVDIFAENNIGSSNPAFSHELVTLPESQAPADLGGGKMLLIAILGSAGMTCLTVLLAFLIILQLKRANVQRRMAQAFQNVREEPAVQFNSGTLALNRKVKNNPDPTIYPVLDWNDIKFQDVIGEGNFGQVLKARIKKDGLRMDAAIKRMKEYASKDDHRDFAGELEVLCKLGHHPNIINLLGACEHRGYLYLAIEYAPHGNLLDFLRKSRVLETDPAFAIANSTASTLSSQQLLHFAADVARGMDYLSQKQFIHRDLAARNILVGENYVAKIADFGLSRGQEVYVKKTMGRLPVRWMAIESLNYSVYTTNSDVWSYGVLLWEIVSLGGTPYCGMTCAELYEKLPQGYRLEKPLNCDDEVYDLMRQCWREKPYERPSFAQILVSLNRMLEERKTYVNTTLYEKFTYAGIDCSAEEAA

Experiment [2] deals with T1, Tie2. The experiment can be described thus: Tie-2-Kinase HTRF-Assay without kinase preactivation. Format: biochemical. The arrangement: fusion protein of GST and the intracellular domains of Tie-2; GST; made in house; host or cells: insect cells (Hi-5). The settings on record: GST-Tie-2 intracellular domains, 10 μM ATP. An excerpt:
Tie2-inhibitory activity of compounds of the present invention was quantified employing two Tie2 HTRF assay as described in the following paragraphs.
A recombinant fusion protein of GST and the intracellular domains of Tie-2, expressed in insect cells (Hi-5) and purified by Glutathion-Sepharose affinity chromatography was used as kinase. Alternatively, commercially available GST-Tie2-fusion protein (Upstate Biotechnology, Dundee, Scotland) can be used As substrate for the kinase reaction the biotinylated peptide biotin-Ahx-EPKDDAYPLYSDFG (C-terminus in amid form) was used which can be purchased e.g. from the company Biosynthan GmbH (Berlin-Buch, Germany). Detection of phosphorylated product is achieved specifically by a trimeric detection complex consisting of the phosphorylated substrate, streptavidin-XLent (SA-XLent) which binds to biotin, and Europium Cryptate-labeled anti-phosphotyrosine antibody PT66 which binds to phosphorylated tyrosine.
Tie-2 (3.5 ng/measurement point) was incubated for 60 min at 22° C. in the presence of 10 μM adenosine-tri-phosphate (ATP) and 1 μM substrate peptide (biotin-Ahx-EPKDDAYPLYSDFG-NH2) with different concentrations of test compounds (0 μM and concentrations in the range 0.001-20 μM) in 5 μl assay buffer [50 mM Hepes/NaOH pH 7, 10 mM MgCl2, 0.5 mM MnCl2, 1.0 mM dithiothreitol, 0.01% NP40, protease inhibitor mixture (“Complete w/o EDTA” from Roche, 1 tablet per 2.5 ml), 1% (v/v) dimethylsulfoxide]. The reaction was stopped by the addition of 5 μl of an aqueous buffer (25 mM Hepes/NaOH pH 7.5, 0.28% (w/v) bovine serum albumin) containing EDTA (90 mM) and the HTRF (Homogeneous Time Resolved Fluorescence) detection reagents streptavidine-XLent (0.2 μM, from Cis Biointernational, Marcoule, France) and PT66-Eu-Chelate (0.3 ng/μl; a europium-chelate labelled anti-phospho-tyrosine antibody from Perkin Elmer).
The resulting mixture was incubated 1 h at 22° C. to allow the binding of the biotinylated phosphorylated peptide to the streptavidine-XLent and the PT66-Eu-Chelate. Subsequently the amount of phosphorylated substrate peptide was evaluated by measurement of the resonance energy transfer from the PT66-Eu-Chelate to the streptavidine-XLent. Therefore, the fluorescence emissions at 620 nm and 665 nm after excitation at 350 nm was measured in a HTRF reader, e.g. a Rubystar (BMG Labtechnologies, Offenburg, Germany) or a Viewlux (Perkin-Elmer). The ratio of the emissions at 665 nm and at […] was taken as the measure for the amount of phosphorylated substrate peptide. The data were normalised (enzyme reaction without inhibitor=0% inhibition, all other assay components but no enzyme=100% inhibition) and IC50 values were calculated by a 4 parameter fit using an inhouse software.
Target sequence in this assay (Q02763 770-1124 limits assumed, species assumed): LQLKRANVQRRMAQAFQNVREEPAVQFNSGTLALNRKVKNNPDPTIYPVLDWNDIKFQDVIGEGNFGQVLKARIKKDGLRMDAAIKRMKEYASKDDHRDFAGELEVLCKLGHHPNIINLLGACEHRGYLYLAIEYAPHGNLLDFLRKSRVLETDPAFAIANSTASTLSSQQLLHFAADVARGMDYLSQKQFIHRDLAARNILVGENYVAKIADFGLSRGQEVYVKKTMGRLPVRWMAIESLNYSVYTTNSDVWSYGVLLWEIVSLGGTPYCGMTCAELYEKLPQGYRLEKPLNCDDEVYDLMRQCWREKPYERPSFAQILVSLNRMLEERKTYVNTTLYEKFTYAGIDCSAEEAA
In general terms: TR-FRET usually uses a lanthanide donor and a delayed reading to cut background.

In the case of `CCn1ncc2c(-c3ccc(NC(=O)Nc4cc(C(F)(F)F)ccc4F)c(F)c3)cncc21` [Example 11.2, 1-[4-(1-Ethyl-1H-pyrazolo[3,4-c]pyridin-4-yl)-2-fluoro-phenyl]-3-(2-fluoro-5-trifluoromethyl-phenyl)-urea], the IC50 in experiment [1] and in experiment [2] was under 501 nM in each case.
In the case of `CCn1ncc2c(-c3ccc(NC(=O)Nc4cc(C)ccc4F)c(F)c3)cncc21` [Example 11.3, 1-[4-(1-Ethyl-1H-pyrazolo[3,4-c]pyridin-4-yl)-2-fluoro-phenyl]-3-(2-fluoro-5-methyl-phenyl)-urea], the IC50 in experiment [1] and in experiment [2] was under 501 nM in each case.
Regarding `COCCn1ncc2c(-c3ccc(NC(=O)Nc4cccc(C(F)(F)F)c4)cc3)cncc21` [Example 12.1, 1-{4-[1-(2-Methoxy-ethyl)-1H-pyrazolo[3,4-c]pyridin-4-yl]-phenyl}-3-(3-trifluoromethyl-phenyl)-urea], the IC50 in experiment [1] and in experiment [2] was under 501 nM each time.
For `COCCn1ncc2c(-c3ccc(NC(=O)Nc4cc(C)ccc4F)cc3)cncc21` [Example 12.3, 1-(2-Fluoro-5-methyl-phenyl)-3-{4-[1-(2-methoxy-ethyl)-1H-pyrazolo[3,4-c]pyridin-4-yl]-phenyl}-urea], the IC50 in experiment [1] and in experiment [2] was under 501 nM each time.
On to `COCCn1ncc2c(-c3ccc(NC(=O)Nc4cccc(C(F)(F)F)c4)c(F)c3)cncc21` [Example 12.4, 1-{2-Fluoro-4-[1-(2-methoxy-ethyl)-1H-pyrazolo[3,4-c]pyridin-4-yl]-phenyl}-3-(3-trifluoromethyl-phenyl)-urea], for which the IC50 in experiment [1] and in experiment [2] was under 501 nM each time.
`COCCn1ncc2c(-c3ccc(NC(=O)Nc4cc(C(F)(F)F)ccc4F)c(F)c3)cncc21` [Example 12.5, 1-{2-Fluoro-4-[1-(2-methoxy-ethyl)-1H-pyrazolo[3,4-c]pyridin-4-yl]-phenyl}-3-(2-fluoro-5-trifluoromethyl-phenyl)-urea]: the IC50 in experiment [1] and in experiment [2] was under 501 nM in each case.
On to `Cn1ncc2c(-c3ccc(NC(=O)Nc4cc(C(C)(C)C)on4)cc3)cncc21` [Example 13.2, 1-(5-tert-Butyl-isoxazol-3-yl)-3-[4-(1-methyl-1H-pyrazolo[3,4-c]pyridin-4-yl)-phenyl]-urea], for which the IC50 in experiment [1] and in experiment [2] was under 501 nM throughout.
In the case of `Cn1ncc2c(-c3ccc(NC(=O)Nc4cc(C(C)(C)C)nn4-c4ccccc4)cc3)cncc21` [Example 13.4, 1-(5-tert-Butyl-2-phenyl-2H-pyrazol-3-yl)-13-[4-(1-methyl-1H-pyrazolo[3,4-c]pyridin-4-yl)-phenyl]-urea], the IC50 in experiment [1] and in experiment [2] was under 501 nM throughout.
In the case of `CN1CCN(Cc2ccc(NC(=O)Nc3ccc(-c4cncc5c4cnn5C)cc3F)cc2C(F)(F)F)CC1` [Example 13.6, 1-[2-Fluoro-4-(1-methyl-1H-pyrazolo[3,4-c]pyridin-4-yl)-phenyl]-3-[4-(4-methyl-piperazin-1-ylmethyl)-3-trifluoromethyl-phenyl]-urea], the IC50 in experiment [1] and in experiment [2] was under 501 nM in each case.
For the compound `CN(C)c1ccc(C(F)(F)F)cc1NC(=O)Nc1ccc(-c2cncc3c2cnn3C)cc1` [Example 13.11, 1-(2-Dimethylamino-5-trifluoromethyl-phenyl)-3-[4-(1-methyl-1H-pyrazolo[3,4-c]pyridin-4-yl)-phenyl]-urea], the IC50 in experiment [1] and in experiment [2] was under 501 nM each time.
As to `CN(C)C1CCN(c2ccc(C(F)(F)F)cc2NC(=O)Nc2ccc(-c3cncc4c3cnn4C)cc2)C1` (centres unmarked) [Example 13.12, 1-[2-(3-Dimethylamino-pyrrolidin-1-yl)-5-trifluoromethyl-phenyl]-3-[4-(1-methyl-1H-pyrazolo[3,4-c]pyridin-4-yl)-phenyl]-urea], the IC50 in experiment [1] and in experiment [2] was under 501 nM each time.
With `CN(C)CCN(C)c1ccc(C(F)(F)F)cc1NC(=O)Nc1ccc(-c2cncc3c2cnn3C)cc1` [Example 13.13, 1-{2-[(2-Dimethylamino-ethyl)-methyl-amino]-5-trifluoromethyl-phenyl}-3-[4-(1-methyl-1H-pyrazolo[3,4-c]pyridin-4-yl)-phenyl]-urea], the IC50 in experiment [1] and in experiment [2] was under 501 nM throughout.
In the case of `Cn1nc(C(C)(C)C)cc1NC(=O)Nc1ccc(-c2cncc3c2cnn3C)cc1` [Example 14.3, 1-(5-tert-Butyl-2-methyl-2H-pyrazol-3-yl)-3-[4-(1-methyl-1H-pyrazolo[3,4-c]pyridin-4-yl)-phenyl]-urea], the IC50 in experiment [1] and in experiment [2] was under 501 nM in each case.
Regarding `Cn1ncc2c(-c3ccc(NC(=O)Nc4cc(C(F)(F)F)ccn4)c(F)c3)cncc21` [Example 14.5, 1-[2-Fluoro-4-(1-methyl-1H-pyrazolo[3,4-c]pyridin-4-yl)-phenyl]-3-(4-trifluoromethyl-pyridin-2-yl)-urea], the IC50 in experiment [1] and in experiment [2] was under 501 nM in each case.
Turning to `CC(C)c1cc(NC(=O)Nc2ccc(-c3cncc4c3cnn4C)cc2)n(-c2cccc(F)c2)n1` [Example 15.1, 1-[2-(3-Fluoro-phenyl)-5-isopropyl-2H-pyrazol-3-yl]-3-[4-(1-methyl-1H-pyrazolo[3,4-c]pyridin-4-yl)-phenyl]-urea], the IC50 in experiment [1] and in experiment [2] was under 501 nM each time.
For `CC(C)c1cc(NC(=O)Nc2ccc(-c3cncc4c3cnn4C)cc2F)n(-c2cccc(F)c2)n1` [Example 15.2, 1-[2-Fluoro-4-(1-methyl-1H-pyrazolo[3,4-c]pyridin-4-yl)-phenyl]-3-[2-(3-fluoro-phenyl)-5-isopropyl-2H-pyrazol-3-yl]-urea], the IC50 in experiment [1] and in experiment [2] was under 501 nM in each case.

For the origin of these results see patent US20090062273A1, “3-H-pyrazolopyridines and salts thereof, pharmaceutical compositions comprising same, methods of preparing same and uses of same” (priority 2006, published 2009).
